According to ChEMBL document CHEMBL4507319 (2021):

Key:
[1] = biological target: Serine/threonine-protein kinase PAK 2 (Homo sapiens) (UniProt Q13177); conditions: Compound concentration 1000.0 nM
[2] = biological target: T1, Muscle, skeletal receptor tyrosine-protein kinase (Homo sapiens) (UniProt O15146); conditions: Compound concentration 1000.0 nM
T1 sequence (whole entry): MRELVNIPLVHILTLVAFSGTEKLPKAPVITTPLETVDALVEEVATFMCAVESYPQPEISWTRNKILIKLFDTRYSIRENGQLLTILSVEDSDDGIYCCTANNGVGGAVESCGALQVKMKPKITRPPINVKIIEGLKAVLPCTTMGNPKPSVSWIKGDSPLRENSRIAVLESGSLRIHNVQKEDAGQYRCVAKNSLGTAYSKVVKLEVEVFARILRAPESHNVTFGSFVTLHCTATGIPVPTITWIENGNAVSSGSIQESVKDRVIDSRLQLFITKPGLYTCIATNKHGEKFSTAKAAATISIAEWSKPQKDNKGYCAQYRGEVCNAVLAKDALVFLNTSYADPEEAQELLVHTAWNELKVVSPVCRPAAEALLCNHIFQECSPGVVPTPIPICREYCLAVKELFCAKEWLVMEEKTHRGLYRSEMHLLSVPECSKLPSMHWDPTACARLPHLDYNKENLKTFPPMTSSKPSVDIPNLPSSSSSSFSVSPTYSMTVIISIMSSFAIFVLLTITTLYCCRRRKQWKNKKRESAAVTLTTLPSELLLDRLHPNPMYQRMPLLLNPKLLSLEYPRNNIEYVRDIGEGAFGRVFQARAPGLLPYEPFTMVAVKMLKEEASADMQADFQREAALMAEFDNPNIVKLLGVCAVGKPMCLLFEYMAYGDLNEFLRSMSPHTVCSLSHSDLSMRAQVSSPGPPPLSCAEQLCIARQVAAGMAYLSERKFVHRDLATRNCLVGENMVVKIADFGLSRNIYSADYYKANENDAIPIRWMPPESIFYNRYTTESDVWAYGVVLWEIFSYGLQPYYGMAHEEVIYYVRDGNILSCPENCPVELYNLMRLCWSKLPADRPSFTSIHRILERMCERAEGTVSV

[3] = test system: ALK tyrosine kinase receptor (Homo sapiens), Q9UM73 [L1196M]; conditions: Compound concentration 1000.0 nM
[4] = biological target: Casein kinase I isoform epsilon (Homo sapiens) (UniProt P49674); conditions: Compound concentration 1000.0 nM
[5] = biological target: Cyclin-dependent kinase 2 (Homo sapiens) (UniProt P24941); conditions: Compound concentration 1000.0 nM
[6] = biological target: Proto-oncogene tyrosine-protein kinase Src (Homo sapiens) (UniProt P12931); conditions: Compound concentration 1000.0 nM
[7] = test system: Hepatocyte growth factor receptor (Homo sapiens), P08581 [M1250T]; conditions: Compound concentration 1000.0 nM
[8] = biological target: Muscarinic acetylcholine receptor M2 (Homo sapiens) (UniProt P08172); conditions: Compound concentration 10.0 uM
[9] = biological target: LIM domain kinase 2 (Homo sapiens) (UniProt P53671); conditions: Compound concentration 1000.0 nM
[10] = test system: Receptor-type tyrosine-protein kinase FLT3 (Homo sapiens), P36888 [UNDEFINED MUTATION]; conditions: Compound concentration 1000.0 nM
[11] = biological target: Beta-1 adrenergic receptor (Homo sapiens) (UniProt P08588); conditions: Compound concentration 10.0 uM
[12] = biological target: T2, Myotonin-protein kinase (Homo sapiens) (UniProt Q09013); conditions: Compound concentration 1000.0 nM
T2 sequence (whole entry): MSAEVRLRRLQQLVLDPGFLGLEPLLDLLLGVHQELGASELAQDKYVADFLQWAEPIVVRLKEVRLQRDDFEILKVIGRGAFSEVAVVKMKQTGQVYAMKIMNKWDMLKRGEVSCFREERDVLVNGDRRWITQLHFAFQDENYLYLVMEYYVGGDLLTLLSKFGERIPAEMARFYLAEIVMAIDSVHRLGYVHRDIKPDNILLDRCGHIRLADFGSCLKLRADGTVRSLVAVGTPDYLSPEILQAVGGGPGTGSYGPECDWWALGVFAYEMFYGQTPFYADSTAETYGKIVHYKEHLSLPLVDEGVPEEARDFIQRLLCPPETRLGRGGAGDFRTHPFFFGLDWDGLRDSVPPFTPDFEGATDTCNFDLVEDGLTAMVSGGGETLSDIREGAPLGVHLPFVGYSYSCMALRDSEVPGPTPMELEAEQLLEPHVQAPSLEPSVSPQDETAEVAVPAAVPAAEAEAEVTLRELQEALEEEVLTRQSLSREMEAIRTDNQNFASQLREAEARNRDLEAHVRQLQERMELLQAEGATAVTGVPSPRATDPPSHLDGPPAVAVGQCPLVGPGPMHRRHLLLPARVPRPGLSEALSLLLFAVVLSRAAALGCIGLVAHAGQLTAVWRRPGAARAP

[13] = biological target: T3, Activin receptor type-1 (Homo sapiens) (UniProt Q04771); conditions: Compound concentration 1000.0 nM
T3 sequence (whole entry): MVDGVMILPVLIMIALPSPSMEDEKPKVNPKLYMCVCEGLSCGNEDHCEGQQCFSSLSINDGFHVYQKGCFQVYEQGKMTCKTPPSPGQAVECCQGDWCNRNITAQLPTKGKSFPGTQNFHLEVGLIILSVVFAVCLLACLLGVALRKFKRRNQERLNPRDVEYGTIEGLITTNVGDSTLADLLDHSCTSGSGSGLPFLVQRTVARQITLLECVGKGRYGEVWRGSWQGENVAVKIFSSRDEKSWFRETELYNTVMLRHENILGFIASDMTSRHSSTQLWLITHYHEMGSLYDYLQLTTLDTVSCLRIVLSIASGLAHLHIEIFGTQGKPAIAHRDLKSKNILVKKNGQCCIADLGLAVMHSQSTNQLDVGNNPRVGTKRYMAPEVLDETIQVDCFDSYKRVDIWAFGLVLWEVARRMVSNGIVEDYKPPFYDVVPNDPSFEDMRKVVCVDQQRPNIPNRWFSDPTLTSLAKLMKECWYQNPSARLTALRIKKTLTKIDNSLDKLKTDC

[14] = biological target: Tyrosine-protein kinase Yes (Homo sapiens) (UniProt P07947); conditions: Compound concentration 1000.0 nM
Chain of Tyrosine-protein kinase Yes (Homo sapiens) (P07947 2-543 limits assumed): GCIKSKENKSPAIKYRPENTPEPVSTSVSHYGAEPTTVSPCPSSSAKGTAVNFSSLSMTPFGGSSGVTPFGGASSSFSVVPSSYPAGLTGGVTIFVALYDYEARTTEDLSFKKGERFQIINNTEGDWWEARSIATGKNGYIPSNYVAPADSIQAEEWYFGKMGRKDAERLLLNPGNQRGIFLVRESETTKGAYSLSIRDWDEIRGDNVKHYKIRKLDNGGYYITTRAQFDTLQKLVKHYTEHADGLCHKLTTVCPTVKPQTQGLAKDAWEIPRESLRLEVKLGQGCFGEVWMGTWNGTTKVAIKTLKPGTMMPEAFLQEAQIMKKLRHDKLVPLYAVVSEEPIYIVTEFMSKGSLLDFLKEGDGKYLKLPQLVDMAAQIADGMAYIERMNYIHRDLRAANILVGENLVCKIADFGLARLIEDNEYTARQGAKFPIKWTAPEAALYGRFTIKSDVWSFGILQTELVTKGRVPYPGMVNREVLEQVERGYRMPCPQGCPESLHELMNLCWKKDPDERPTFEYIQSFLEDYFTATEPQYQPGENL

Chain of LIM domain kinase 2 (Homo sapiens) (P53671 whole entry, looked up, the tested form may be a part): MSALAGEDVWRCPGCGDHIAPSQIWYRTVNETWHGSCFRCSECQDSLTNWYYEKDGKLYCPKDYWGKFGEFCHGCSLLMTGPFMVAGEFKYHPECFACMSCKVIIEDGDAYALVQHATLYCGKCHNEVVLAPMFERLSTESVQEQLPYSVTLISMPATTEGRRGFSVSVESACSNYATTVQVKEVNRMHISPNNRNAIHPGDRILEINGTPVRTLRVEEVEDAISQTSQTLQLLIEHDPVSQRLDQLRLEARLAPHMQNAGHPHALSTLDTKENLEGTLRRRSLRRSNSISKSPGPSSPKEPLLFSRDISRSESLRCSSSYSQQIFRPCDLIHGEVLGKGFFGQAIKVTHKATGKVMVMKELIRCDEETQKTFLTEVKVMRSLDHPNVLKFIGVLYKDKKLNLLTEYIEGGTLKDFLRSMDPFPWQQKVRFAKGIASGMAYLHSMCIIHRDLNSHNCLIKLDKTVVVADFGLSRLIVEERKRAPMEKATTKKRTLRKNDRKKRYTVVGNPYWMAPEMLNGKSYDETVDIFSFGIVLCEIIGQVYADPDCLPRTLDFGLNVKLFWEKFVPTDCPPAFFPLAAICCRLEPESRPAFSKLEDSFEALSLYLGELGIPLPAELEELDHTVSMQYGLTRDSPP
Chain of Serine/threonine-protein kinase PAK 2 (Homo sapiens) (Q13177 whole entry): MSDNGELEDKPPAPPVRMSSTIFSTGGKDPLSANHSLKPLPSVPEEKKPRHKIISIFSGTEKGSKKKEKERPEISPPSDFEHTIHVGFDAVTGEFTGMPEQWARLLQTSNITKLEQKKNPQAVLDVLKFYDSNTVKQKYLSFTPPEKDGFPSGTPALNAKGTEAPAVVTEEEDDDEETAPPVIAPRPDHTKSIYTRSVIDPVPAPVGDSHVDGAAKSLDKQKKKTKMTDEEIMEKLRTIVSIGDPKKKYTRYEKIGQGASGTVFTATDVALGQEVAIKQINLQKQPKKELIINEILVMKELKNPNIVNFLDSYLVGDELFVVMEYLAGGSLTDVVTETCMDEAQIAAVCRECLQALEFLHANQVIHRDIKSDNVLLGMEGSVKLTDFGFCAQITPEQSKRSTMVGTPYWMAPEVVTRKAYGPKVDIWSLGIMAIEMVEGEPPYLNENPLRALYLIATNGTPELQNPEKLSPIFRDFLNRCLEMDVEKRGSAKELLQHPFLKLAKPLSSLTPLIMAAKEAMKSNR
Chain of ALK tyrosine kinase receptor (Homo sapiens), Q9UM73 [L1196M] (Q9UM73 whole entry L1196M, looked up, canonical isoform): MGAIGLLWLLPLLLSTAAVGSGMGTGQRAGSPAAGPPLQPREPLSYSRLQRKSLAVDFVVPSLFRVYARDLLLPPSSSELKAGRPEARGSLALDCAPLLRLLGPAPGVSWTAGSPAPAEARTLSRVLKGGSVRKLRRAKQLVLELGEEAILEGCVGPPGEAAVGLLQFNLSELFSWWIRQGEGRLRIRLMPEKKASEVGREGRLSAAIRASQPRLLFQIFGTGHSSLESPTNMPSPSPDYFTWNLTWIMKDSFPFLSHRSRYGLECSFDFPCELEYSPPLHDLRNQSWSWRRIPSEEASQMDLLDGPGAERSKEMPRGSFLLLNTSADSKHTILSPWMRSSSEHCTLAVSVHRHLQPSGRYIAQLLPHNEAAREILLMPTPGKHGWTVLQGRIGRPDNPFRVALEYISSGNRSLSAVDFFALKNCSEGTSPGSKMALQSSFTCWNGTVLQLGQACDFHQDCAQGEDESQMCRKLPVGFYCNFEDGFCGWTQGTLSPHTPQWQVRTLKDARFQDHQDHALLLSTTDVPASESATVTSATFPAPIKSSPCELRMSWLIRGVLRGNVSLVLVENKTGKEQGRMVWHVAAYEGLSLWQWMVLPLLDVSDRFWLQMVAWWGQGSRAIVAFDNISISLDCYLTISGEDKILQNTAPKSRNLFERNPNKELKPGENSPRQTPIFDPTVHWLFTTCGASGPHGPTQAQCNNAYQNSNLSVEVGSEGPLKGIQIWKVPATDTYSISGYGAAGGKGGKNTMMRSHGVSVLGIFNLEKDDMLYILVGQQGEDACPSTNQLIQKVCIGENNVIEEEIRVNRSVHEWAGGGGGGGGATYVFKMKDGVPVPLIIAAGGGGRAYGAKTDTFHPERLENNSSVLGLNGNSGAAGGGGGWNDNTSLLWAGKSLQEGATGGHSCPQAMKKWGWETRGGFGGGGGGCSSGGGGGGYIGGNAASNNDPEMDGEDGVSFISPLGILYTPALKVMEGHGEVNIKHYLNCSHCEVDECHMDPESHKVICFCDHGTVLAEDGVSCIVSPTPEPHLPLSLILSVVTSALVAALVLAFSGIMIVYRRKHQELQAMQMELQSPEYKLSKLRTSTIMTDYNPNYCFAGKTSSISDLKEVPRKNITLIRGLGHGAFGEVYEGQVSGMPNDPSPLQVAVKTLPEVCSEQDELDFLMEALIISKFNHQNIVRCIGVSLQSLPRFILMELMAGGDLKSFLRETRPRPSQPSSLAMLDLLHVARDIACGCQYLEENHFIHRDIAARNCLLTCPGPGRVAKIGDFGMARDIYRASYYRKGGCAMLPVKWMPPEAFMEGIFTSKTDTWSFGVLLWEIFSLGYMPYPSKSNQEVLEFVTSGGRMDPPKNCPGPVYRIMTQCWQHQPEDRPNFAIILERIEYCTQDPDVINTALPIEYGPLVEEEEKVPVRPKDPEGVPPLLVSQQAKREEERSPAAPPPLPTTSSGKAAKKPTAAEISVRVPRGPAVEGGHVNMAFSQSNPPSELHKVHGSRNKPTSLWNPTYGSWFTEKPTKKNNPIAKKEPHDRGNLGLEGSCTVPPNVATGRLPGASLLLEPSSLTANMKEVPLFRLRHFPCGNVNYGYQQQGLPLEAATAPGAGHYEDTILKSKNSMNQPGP
Chain of Casein kinase I isoform epsilon (Homo sapiens) (P49674 whole entry, looked up, canonical isoform): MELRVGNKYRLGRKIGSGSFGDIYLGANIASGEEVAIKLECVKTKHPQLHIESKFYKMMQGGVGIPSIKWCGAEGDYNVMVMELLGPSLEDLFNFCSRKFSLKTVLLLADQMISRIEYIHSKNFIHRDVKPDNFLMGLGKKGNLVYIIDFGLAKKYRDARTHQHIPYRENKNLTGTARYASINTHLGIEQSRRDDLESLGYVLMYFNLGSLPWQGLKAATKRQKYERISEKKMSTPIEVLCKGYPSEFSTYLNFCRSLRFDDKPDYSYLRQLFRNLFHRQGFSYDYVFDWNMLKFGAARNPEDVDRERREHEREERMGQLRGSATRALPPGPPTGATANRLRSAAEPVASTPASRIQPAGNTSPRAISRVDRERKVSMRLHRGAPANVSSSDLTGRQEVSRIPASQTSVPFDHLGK
Chain of Beta-1 adrenergic receptor (Homo sapiens) (P08588 whole entry, looked up): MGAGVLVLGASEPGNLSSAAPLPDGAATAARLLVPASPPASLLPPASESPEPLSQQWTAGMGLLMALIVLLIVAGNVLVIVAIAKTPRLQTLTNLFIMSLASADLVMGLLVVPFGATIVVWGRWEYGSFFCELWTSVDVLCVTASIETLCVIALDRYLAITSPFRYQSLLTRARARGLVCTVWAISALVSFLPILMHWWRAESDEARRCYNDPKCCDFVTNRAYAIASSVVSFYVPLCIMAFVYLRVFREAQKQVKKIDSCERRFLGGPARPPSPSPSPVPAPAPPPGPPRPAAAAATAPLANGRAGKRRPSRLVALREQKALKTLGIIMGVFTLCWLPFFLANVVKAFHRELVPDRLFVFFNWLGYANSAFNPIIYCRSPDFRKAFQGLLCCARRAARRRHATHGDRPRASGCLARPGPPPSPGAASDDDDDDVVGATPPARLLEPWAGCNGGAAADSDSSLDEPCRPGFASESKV
Chain of Proto-oncogene tyrosine-protein kinase Src (Homo sapiens) (P12931 2-536 limits assumed): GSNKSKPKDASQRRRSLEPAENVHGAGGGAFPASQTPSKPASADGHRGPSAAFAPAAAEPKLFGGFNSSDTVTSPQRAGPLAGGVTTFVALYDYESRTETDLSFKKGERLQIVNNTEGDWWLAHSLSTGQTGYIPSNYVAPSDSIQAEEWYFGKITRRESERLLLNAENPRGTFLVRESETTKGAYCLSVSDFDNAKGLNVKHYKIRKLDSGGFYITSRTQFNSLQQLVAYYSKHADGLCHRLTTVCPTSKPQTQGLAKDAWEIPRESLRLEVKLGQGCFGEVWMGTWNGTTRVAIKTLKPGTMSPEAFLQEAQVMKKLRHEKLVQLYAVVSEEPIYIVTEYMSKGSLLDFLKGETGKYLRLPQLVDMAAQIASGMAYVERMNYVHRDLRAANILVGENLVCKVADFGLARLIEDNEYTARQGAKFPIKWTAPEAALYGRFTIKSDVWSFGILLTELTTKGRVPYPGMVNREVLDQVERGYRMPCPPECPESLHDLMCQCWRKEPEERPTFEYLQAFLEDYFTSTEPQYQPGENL

Structure (SMILES) | residual activity [1] [%] | residual activity [2] [%] | residual activity [3] [%] | residual activity [4] [%] | residual activity [5] [%] | residual activity [6] [%] | residual activity [7] [%] | inhibition [8] [%] | residual activity [9] [%] | residual activity [10] [%] | inhibition [11] [%] | residual activity [12] [%] | residual activity [13] [%] | residual activity [14] [%]
CC1=C(C#N)C(c2ccc3c(c2)c(NC(=O)c2ccccc2C)nn3C)C(C#N)=C(C)N1 [BAY-974] | 100 | 98 | 80 | 100 | 86 | 89 | 27 | -2.08 | 99 | 64 | -7.79 | 99 | 99 | 88
CCc1ccccc1C(=O)Nc1n[nH]c2c(C)c(F)c(C3C(C#N)=C(C)N(C)C(C)=C3C#N)cc12 [BAY-3827] | 75 | 83 | 83 | 100 | 100 | 94 | 25 | 5.1 | 99 | 11 | 1.59 | 100 | 100 | 86
